Assay results from ChEMBL document CHEMBL5725589, “Heterocyclic compounds as PI3K-γ inhibitors” (2018).

Columns and labels:
[1] = molecular target: T1, Phosphatidylinositol 4,5-bisphosphate 3-kinase catalytic subunit delta isoform (Homo sapiens, UniProt O00329); test: PI3Kδ (p110δ/p85α) Recombinant Human Protein was purchased from Eurofins (St Charles, Mo.). […] The final concentration of DMSO in the assay was 2%. […] ATP, 3.4 nM PI3Kδ. […] The final concentration of SPA beads is 1.0 mg/mL.
T1 sequence (O00329 whole entry): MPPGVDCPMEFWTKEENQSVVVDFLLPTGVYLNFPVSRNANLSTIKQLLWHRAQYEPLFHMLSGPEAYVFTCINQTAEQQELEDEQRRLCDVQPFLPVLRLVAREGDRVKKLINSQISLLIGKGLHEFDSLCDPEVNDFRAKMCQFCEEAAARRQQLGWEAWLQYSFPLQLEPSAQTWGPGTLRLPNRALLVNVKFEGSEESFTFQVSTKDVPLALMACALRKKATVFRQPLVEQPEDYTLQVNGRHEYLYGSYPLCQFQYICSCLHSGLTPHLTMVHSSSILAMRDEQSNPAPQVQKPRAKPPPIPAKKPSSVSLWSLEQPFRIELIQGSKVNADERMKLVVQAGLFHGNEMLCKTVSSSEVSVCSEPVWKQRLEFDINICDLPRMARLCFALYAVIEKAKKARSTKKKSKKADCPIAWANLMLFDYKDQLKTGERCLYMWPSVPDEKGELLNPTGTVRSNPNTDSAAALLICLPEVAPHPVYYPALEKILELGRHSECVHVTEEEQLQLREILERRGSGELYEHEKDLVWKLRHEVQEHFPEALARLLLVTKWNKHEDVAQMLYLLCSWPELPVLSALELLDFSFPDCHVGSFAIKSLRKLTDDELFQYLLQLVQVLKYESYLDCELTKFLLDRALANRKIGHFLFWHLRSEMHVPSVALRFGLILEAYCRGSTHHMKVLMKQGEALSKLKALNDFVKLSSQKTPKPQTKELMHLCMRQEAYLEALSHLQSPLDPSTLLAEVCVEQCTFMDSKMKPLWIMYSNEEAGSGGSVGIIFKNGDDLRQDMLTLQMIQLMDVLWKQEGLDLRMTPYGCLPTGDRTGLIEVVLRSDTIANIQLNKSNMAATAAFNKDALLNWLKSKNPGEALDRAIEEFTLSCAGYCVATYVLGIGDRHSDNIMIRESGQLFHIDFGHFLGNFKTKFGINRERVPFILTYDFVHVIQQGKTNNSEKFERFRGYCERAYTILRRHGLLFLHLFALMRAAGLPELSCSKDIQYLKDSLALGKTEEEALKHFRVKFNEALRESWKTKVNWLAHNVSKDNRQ

[2] = molecular target: Phosphatidylinositol 4,5-bisphosphate 3-kinase catalytic subunit gamma isoform (Homo sapiens, UniProt P48736); test: PI3Kγ (p110γ) Recombinant Human Protein was purchased from Life technology (Grand Island, N.Y.). […] The final concentration of DMSO in the assay was 2%. […] ATP, 13 nM PI3Kγ. […] The final concentration of SPA beads is 1.0 mg/mL.
Sequence of Phosphatidylinositol 4,5-bisphosphate 3-kinase catalytic subunit gamma isoform (P48736 whole entry, the tested form may be a part, canonical isoform): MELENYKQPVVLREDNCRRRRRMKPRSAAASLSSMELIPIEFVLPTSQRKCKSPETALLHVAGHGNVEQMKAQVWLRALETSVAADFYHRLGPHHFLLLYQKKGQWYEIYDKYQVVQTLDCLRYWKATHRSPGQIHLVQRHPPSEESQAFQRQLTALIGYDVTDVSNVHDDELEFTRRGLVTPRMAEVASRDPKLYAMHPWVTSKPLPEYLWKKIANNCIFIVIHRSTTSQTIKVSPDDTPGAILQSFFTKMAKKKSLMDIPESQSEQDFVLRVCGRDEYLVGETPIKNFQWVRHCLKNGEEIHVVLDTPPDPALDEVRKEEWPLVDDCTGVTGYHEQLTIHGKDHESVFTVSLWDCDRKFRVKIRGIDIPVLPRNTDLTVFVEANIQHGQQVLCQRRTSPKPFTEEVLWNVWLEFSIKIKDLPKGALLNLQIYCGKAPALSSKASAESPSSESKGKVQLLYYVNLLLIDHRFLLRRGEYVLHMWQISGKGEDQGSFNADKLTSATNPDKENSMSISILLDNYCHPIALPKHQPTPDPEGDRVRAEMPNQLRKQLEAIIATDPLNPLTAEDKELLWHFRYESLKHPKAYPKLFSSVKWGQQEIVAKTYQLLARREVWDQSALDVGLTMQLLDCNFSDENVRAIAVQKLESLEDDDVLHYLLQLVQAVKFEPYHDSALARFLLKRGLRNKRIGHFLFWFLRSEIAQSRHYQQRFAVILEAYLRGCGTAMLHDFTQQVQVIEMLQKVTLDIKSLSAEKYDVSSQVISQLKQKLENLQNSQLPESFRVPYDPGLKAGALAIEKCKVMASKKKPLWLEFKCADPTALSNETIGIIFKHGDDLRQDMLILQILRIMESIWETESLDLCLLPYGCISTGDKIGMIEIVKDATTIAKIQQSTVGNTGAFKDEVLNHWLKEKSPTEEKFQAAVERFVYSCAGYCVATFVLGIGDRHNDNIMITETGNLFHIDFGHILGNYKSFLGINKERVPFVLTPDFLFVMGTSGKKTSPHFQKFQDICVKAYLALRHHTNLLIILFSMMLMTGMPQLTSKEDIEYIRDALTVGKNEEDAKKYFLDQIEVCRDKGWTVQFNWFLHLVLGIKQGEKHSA

[3] = molecular target: Tyrosine-protein kinase JAK1 (Homo sapiens, UniProt P23458); test: In Vitro JAK Kinase Assay: Compounds herein were tested for inhibitory activity of JAK targets according to the following in vitro assay described in Park et al., Analytical Biochemistry 1999, 269, 94-104. The catalytic domains of human JAK1 (a.a. 837-1142), JAK2 (a.a. 828-1132) and JAK3 (a.a. 781-1124) were expressed using baculovirus in insect cells and purified. The catalytic activity of JAK1 …
Sequence of Tyrosine-protein kinase JAK1 (P23458 whole entry, the tested form may be a part): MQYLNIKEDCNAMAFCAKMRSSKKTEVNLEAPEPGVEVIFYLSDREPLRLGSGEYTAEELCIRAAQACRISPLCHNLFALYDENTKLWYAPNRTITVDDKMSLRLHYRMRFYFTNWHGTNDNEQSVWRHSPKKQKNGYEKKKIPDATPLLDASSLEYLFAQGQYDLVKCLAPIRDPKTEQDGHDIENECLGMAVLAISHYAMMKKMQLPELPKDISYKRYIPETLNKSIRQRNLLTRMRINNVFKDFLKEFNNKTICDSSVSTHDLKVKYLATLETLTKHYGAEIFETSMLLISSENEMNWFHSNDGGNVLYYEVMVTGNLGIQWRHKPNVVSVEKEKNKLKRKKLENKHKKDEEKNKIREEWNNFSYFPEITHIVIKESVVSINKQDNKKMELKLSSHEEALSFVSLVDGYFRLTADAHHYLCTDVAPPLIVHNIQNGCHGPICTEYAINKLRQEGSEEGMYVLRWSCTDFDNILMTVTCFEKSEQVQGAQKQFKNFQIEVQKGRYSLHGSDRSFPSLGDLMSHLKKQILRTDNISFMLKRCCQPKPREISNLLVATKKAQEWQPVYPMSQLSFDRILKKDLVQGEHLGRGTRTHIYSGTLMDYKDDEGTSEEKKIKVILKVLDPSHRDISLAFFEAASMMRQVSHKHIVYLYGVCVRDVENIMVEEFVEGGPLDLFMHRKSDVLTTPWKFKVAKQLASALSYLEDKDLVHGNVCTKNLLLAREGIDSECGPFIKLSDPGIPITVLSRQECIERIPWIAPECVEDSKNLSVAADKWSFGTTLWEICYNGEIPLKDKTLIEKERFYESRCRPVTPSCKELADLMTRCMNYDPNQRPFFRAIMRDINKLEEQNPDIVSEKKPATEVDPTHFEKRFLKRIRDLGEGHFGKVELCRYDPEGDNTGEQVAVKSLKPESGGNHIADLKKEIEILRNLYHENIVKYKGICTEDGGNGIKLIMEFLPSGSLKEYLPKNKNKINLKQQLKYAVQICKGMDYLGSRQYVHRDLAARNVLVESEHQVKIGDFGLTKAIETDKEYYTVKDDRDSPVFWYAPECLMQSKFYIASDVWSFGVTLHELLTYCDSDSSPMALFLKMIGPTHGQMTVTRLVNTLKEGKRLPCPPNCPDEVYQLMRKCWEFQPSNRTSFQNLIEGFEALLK

| SMILES | IC50 [1] | IC50 [2] | IC50 [3] |
| --- | --- | --- | --- |
| CCOc1c(C(C)NC(=O)c2c(N)nn3cccnc23)cc(Cl)c2cn(C)nc12 (centres undefined) | < 500 nM | < 500 nM | – |
| CC(NC(=O)c1c(N)nn2cccnc12)c1cc(Cl)c2cncn2c1-c1ccccc1 (centres undefined) | < 100 nM | < 100 nM | – |
| C[C@@H](O)CNCc1cc(OC2CCN([C@H]3C[C@](CC#N)(n4cc(-c5ncnc6[nH]ccc56)cn4)C3)CC2)nc(C(F)(F)F)c1 | – | – | < 100 nM |
| CC(NC(=O)c1c(N)nn2cccnc12)c1cc(C#N)c2cncn2c1-c1ccccc1 (centres undefined) | < 500 nM | < 500 nM | – |
| CC(NC(=O)c1c(N)nn2cccnc12)c1cc(Cl)c2c(Br)n[nH]c2c1-c1ccccc1 (centres undefined) | < 2000 nM | < 100 nM | – |
| CCOc1c(C(C)NC(=O)c2c(N)nn3cccnc23)cc(Cl)c2cnn(C)c12 (centres undefined) | < 100 nM | < 100 nM | – |
| C[C@@H](CO)NCc1cc(OC2CCN([C@H]3C[C@](CC#N)(n4cc(-c5ncnc6[nH]ccc56)cn4)C3)CC2)nc(C(F)(F)F)c1 | – | – | < 100 nM |
| N#CCC1(n2cc(-c3ncnc4[nH]ccc34)cn2)CN([C@H]2CC[C@@H](Oc3cc(CN4CC[C@H](O)C4)cc(C(F)(F)F)n3)CC2)C1 (single isomer, unassigned) | – | – | < 100 nM |
| CCCC(NC(=O)c1c(N)nn2cccnc12)c1cc(Cl)c2cncn2c1N1CCS(=O)(=O)CC1 (centres undefined) | < 100 nM | < 100 nM | – |
| CCOc1c(C(C)NC(=O)c2c(N)nn3cccnc23)cc(Cl)c2cn(CC)nc12 (centres undefined) | < 2000 nM | < 500 nM | – |
| Cc1cc(C(C)NC(=O)c2c(N)nn3cccnc23)c(-c2cccc(F)c2)n2c(C)ncc12 (centres undefined) | < 2000 nM | < 100 nM | – |
| CCNCc1cc(O[C@H]2CC[C@@H](N3CC(CC#N)(n4cc(-c5ncnc6[nH]ccc56)cn4)C3)CC2)nc(C(F)(F)F)c1 | – | – | < 100 nM |
| CC(NC(=O)c1c(N)nn2cccnc12)c1cc(Cl)c2cn(Cc3ccn(C)n3)nc2c1-c1ccccc1 (centres undefined) | < 2000 nM | < 500 nM | – |
| N#CC[C@]1(n2cc(-c3ncnc4[nH]ccc34)cn2)C[C@H](N2CCC(Oc3cc(CN4CCC[C@@H]4CO)cc(C(F)(F)F)n3)CC2)C1 | – | – | < 100 nM |
| Cc1cc(C(C)NC(=O)c2c(N)nn3cccnc23)c(-c2ccccc2)c2[nH]nc(C)c12 (centres undefined) | < 2000 nM | < 500 nM | – |
| N#CC[C@]1(n2cc(-c3ncnc4[nH]ccc34)cn2)C[C@H](N2CCN(C(=O)c3ccnc(C(F)(F)F)n3)CC2)C1 | – | – | < 100 nM |
| C[C@H](NC(=O)c1cc(F)c(N2CC(CC#N)(n3cc(-c4ncnc5[nH]ccc45)cn3)C2)cc1F)C(F)(F)F | – | – | < 100 nM |

| SMILES | IC50 [1] | IC50 [2] | IC50 [3] |
| --- | --- | --- | --- |
| CC(NC(=O)c1c(N)nn2cccnc12)c1cc(Cl)c2cn(CC(=O)N3CCOCC3)nc2c1-c1ccccc1 (centres undefined) | < 500 nM | < 500 nM | – |
| N#CC[C@]1(n2cc(-c3ncnc4[nH]ccc34)cn2)C[C@H](N2CCC(Oc3cc(CCO)cc(C(F)(F)F)n3)CC2)C1 | – | – | < 100 nM |
| N#CCC1(n2cc(-c3ncnc4[nH]ccc34)cn2)CN([C@H]2CC[C@@H](Oc3cc(CCO)nc(C(F)(F)F)n3)CC2)C1 | – | – | < 100 nM |
| Cc1ncc2c(Cl)cc(C(C)NC(=O)c3c(N)nn4cccnc34)c(-c3cccc(F)c3)n12 (centres undefined) | < 100 nM | < 100 nM | – |
| N#CCC1(n2cc(-c3ncnc4[nH]ccc34)cn2)CN(C2CCN(C(=O)c3ccnc(C(F)(F)F)c3F)CC2)C1 [ITACITINIB] | – | – | < 100 nM |
| C[C@@H](O)c1nc2cnc3ccsc3c2n1[C@H]1CC[C@H](CC#N)OC1 | – | – | < 500 nM |
| N#CCC(C1CCN(c2nc3cccnc3o2)C1)n1cc(-c2ncnc3[nH]ccc23)cn1 (centres undefined) | – | – | < 100 nM |
| CC(NC(=O)c1c(N)nn2cccnc12)c1cc(Cl)c2cn[nH]c2c1-c1ccccc1 (centres undefined) | < 500 nM | < 100 nM | – |
| Cc1n[nH]c2c(-c3ccccc3)c(C(C)NC(=O)c3c(N)nn4cccnc34)cc(Cl)c12 (centres undefined) | < 500 nM | < 100 nM | – |
| N#CCC(CN1CCN(C(=O)c2ccc(C#N)cc2F)CC1)n1ccc(-c2ncnc3[nH]ccc23)c1 (centres undefined) | – | – | < 100 nM |
| CC(C)(O)c1cc(O[C@H]2CC[C@@H](N3CC(CC#N)(n4cc(-c5ncnc6[nH]ccc56)cn4)C3)CC2)nc(C(F)(F)F)c1 | – | – | < 100 nM |
| N#CCC1(n2cc(-c3ncnc4[nH]ccc34)cn2)CN(C2CCN(C(=O)c3ccnc(C(F)(F)F)n3)CC2)C1 | – | – | < 100 nM |
| N#CC[C@]1(n2cc(-c3ncnc4[nH]ccc34)cn2)C[C@H](N2CCC(Oc3cc(CN4CC(O)C4)cc(C(F)(F)F)n3)CC2)C1 | – | – | < 100 nM |
| CC(NC(=O)c1c(N)nn2cccnc12)c1cc(Cl)c2cnn(CCN3CCOCC3)c2c1-c1ccccc1 (centres undefined) | < 100 nM | < 100 nM | – |
| N#CCC1(n2cc(-c3ncnc4[nH]ccc34)cn2)CN([C@H]2CC[C@@H](Oc3cc(CN4CC[C@@H](O)C4)cc(C(F)(F)F)n3)CC2)C1 | – | – | < 100 nM |
| N#CCC1(n2cc(-c3ncnc4[nH]ccc34)cn2)CN(C2CCN(C(=O)Nc3ccc(F)cc3C(F)(F)F)CC2)C1 | – | – | < 100 nM |
| N#CC[C@]1(n2cc(-c3ncnc4[nH]ccc34)cn2)C[C@H](N2CCC(Oc3cc(CN4CCC[C@H]4CO)cc(C(F)(F)F)n3)CC2)C1 | – | – | < 100 nM |
